# Source: doi:10.1101/2024.09.20.614085v3 (biorxiv, 2026)
# Molecular target: SARS-CoV-2 RdRp (nsp12-nsp7-nsp8 complex) (Severe acute respiratory syndrome coronavirus 2, UniProt P0DTD1)
# Assay: biochemical
row,SMILES,EC50 [nM]
1,Cc1cn([C@@H]2O[C@H](COP(=O)(O)OP(=O)(O)OP(=O)(O)O)C[C@H]2O)c(=O)[nH]c1=O [5-methyl-3’-dUTP],107
2,O=c1ccn([C@@H]2O[C@H](COP(=O)(O)OP(=O)(O)OP(=O)(O)O)[C@@H](O)[C@H]2O)c(=O)[nH]1 [UTP],47.9
3,O=c1ccn([C@@H]2O[C@H](COP(=O)(O)OP(=O)(O)OP(=O)(O)O)C[C@H]2O)c(=O)[nH]1 [3’-dUTP],751
